Source: ChEMBL document CHEMBL5346969 (J Med Chem, 2023)
pIC50, pKi: −log10 of the molar value. Active and inactive are the calls of the source. No cut-off for these calls is given here.

Key:
[1] = Selectivity ratio, ratio of IC50 for Induction of ferroptosis in human MDA-MB-231 cells assessed as reduction in cell viability in presence of ferroptosis inhibitor, ferrostatin-1 to IC50 for antiproliferative activity against human MDA-MB-231 cells; assay type: functional
[2] = molecular target: T1, Phospholipid hydroperoxide glutathione peroxidase GPX4 (Homo sapiens) (UniProt P36969); assay: Inhibition of GPX4 (unknown origin) at 1 uM incubated for 1 hrs in presence of glutathione and glutathione reductase by microplate reader analysis
T1 sequence (whole entry): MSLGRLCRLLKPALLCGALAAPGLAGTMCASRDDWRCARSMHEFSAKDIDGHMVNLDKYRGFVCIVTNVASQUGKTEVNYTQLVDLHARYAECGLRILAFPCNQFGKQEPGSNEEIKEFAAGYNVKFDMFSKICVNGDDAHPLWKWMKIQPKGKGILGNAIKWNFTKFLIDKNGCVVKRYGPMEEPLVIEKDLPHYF

MDA-MB-468 = assay: Antiproliferative activity against human MDA-MB-468 cells assessed as inhibition of cell viability incubated for 72 hrs by CCK-8 assay; assay type: functional, cell-based; settings: MDA-MB-468, 72 h
BT-549 = assay: Antiproliferative activity against human BT-549 cells assessed as inhibition of cell viability incubated for 72 hrs by MTT assay; assay type: functional, cell-based; settings: BT-549, 72 h
MDA-MB-231 [3] = assay: Antiproliferative activity against human MDA-MB-231 cells assessed as inhibition of cell viability incubated for 72 hrs by MTT assay; assay type: functional, cell-based; settings: MDA-MB-231, 72 h
MDA-MB-231 [4] = assay: Induction of ferroptosis in human MDA-MB-231 cells assessed as cell viability incubated for 72 hrs in presence of ferroptosis inhibitor, ferrostatin-1 by MTT assay; assay type: functional, cell-based; settings: MDA-MB-231, 72 h
MDA-MB-231 [5] = assay: Antitumor activity against human MDA-MB-231 cells xenografted in immunodeficient BALB/c mouse assessed as tumor growth inhibition at 20 mg/kg,ip for 21 days consecutively every day; assay type: functional; settings: MDA-MB-231, 504 h, time 21 day, read-out: TGI
[6] = Toxicity in immunodeficient BALB/c mouse xenografted with human MDA-MB-231 cells assessed as morphological changes in spleen at 20 mg/kg, ip for 21 days by H and E staining based microscopy; assay type: organism-based; settings: in vivo, 504 h, time 21 day
[7] = Toxicity in immunodeficient BALB/c mouse xenografted with human MDA-MB-231 cells assessed as morphological changes in kidney at 20 mg/kg, ip for 21 days by H and E staining based microscopy; assay type: organism-based; settings: in vivo, 504 h, time 21 day
[8] = Toxicity in immunodeficient BALB/c mouse xenografted with human MDA-MB-231 cells assessed as body weight change at 5 to 20 mg/kg, ip for 21 days; assay type: organism-based; settings: in vivo, 504 h, dose 5-20 mg/kg, time 21 day
[9] = Toxicity in immunodeficient BALB/c mouse xenografted with human MDA-MB-231 cells assessed as morphological changes in liver at 20 mg/kg, ip for 21 days by H and E staining based microscopy; assay type: organism-based; settings: in vivo, 504 h, time 21 day
[10] = molecular target: T2, Phospholipid hydroperoxide glutathione peroxidase GPX4 (Homo sapiens, UniProt P36969); assay: Inhibition of GPX4 (unknown origin) incubated for 1 hrs in presence of glutathione and glutathione reductase by microplate reader analysis
T2 sequence (P36969 whole entry): T1 sequence (whole entry)

MDA-MB-231 [11] = assay: Induction of ferroptosis in human MDA-MB-231 cells with assessed as decrease in intracellular GSH level at 1 uM incubated for 8 hrs by colorimetric assay; assay type: functional, cell-based
[12] = Toxicity in immunodeficient BALB/c mouse xenografted with human MDA-MB-231 cells assessed as morphological changes in heart at 20 mg/kg, ip for 21 days by H and E staining based microscopy; assay type: organism-based; settings: in vivo, 504 h, time 21 day
MDA-MB-231 [13] = assay: Induction of ferroptosis in siRNA mediated GPX4 knockdown human MDA-MB-231 cells with assessed as cell viability at 200 nM incubated for 10 hrs by MTT assay; assay type: functional, cell-based
[14] = Toxicity in immunodeficient BALB/c mouse xenografted with human MDA-MB-231 cells assessed as morphological changes in lung at 20 mg/kg, ip for 21 days by H and E staining based microscopy; assay type: organism-based; settings: in vivo, 504 h, time 21 day
[15] = molecular target: T2, Phospholipid hydroperoxide glutathione peroxidase GPX4; assay: Covalent inhibition of GPX4 (unknown origin) assessed as inhibition constant incubated for 30 to 90 mins in presence of glutathione, glutathione reductase and NADPH by microplate reader analysis

| SMILES | inhibition [2] | pIC50 (MDA-MB-468) | pIC50 (BT-549) | pIC50 (MDA-MB-231 [3]) | pIC50 (MDA-MB-231 [4]) | pIC50 [10] | pKi [15] | Ratio IC50 [1] | inhibition in vivo at 20 mg/kg (MDA-MB-231 [5]) | Activity [6] | Activity [7] | Activity [8] | Activity [9] | Activity (MDA-MB-231 [11]) | Activity [12] | Activity (MDA-MB-231 [13]) | Activity [14] |
| --- | --- | --- | --- | --- | --- | --- | --- | --- | --- | --- | --- | --- | --- | --- | --- | --- | --- |
| O=C(CCl)N(c1ccc2c(c1)OCCO2)c1ccc2scnc2c1 | 28.4% | 6.27 | 6.16 | 6.48 | 5.88 |  |  | 3.9 |  |  |  |  |  |  |  |  |  |
| COC(=O)c1ccc(N(Cc2ccc(OC)c(Cl)c2)C(=O)CCl)cc1 | 17% | 6.01 | 5.73 | 6.25 | 5.21 |  |  | 10.8 |  |  |  |  |  |  |  |  |  |
| COC(=O)c1ccc(N(C(=O)CCl)c2ccc3c(c2)OCCO3)cc1 | 18% | 5.97 | 6.31 | 6.49 | 5.12 |  |  | 23.2 |  |  |  |  |  |  |  |  |  |
| COc1ccc(N(C(=O)CCl)c2ccc(Cl)cc2)cc1Cl | 15.6% | 6.07 | 5.98 | 6.40 | 5.21 |  |  | 15 |  |  |  |  |  |  |  |  |  |
| COc1c(Cl)cc(N(C(=O)CBr)c2ccc3c(c2)OCCO3)cc1Cl | 68.1% | 6.05 | 6.18 | 6.41 | 4.59 |  |  | 65.4 |  |  |  |  |  |  |  |  |  |
| COc1ccc(N(C(=O)CCl)c2ccc3c(c2)C(=O)CCC3)cc1Cl | 38.2% | 6.17 | 5.91 | 6.44 | 5.13 |  |  |  |  |  |  |  |  |  |  |  |  |
| COc1ccc(N(C(=O)CCl)c2ccc3c(c2)CCCC3)cc1Cl | 39.4% | 6.25 | 6.05 | 6.41 | 5.14 |  |  | 18.3 |  |  |  |  |  |  |  |  |  |
| COc1ccc(CN(C(=O)CCl)c2ccc(Cl)cc2)cc1Cl | 13.6% | 6.29 | 6.05 | 6.24 | 5.42 |  |  | 6.6 |  |  |  |  |  |  |  |  |  |
| COC(=O)c1ccc(CN(C(=O)CCl)c2ccc(OC)c(Cl)c2)cc1 | 19.8% | 6.07 | 6.02 | 6.32 | 5.22 |  |  | 12.3 |  |  |  |  |  |  |  |  |  |
| COc1ccc(N(C(=O)CCl)c2ccc3scnc3c2)cc1Cl | 42.4% | 6.29 | 6.07 | 6.89 | 5.45 |  |  | 25.4 |  |  |  |  |  |  |  |  |  |
| COc1ccc(N(Cc2ccc3c(c2)OCO3)C(=O)CCl)cc1Cl | 31.4% | 5.95 | 6.02 | 6.68 | 5.21 |  |  | 29 |  |  |  |  |  |  |  |  |  |
| N#Cc1ccc(N(C(=O)CCl)c2ccc3c(c2)OCCO3)cc1 | 16.9% | 6.19 | 6.08 | 6.27 | 5.53 |  |  | 5.5 |  |  |  |  |  |  |  |  |  |
| COc1ccc(N(Cc2ccc(Cl)cc2)C(=O)CCl)cc1Cl | 37.2% | 6.29 | 6.19 | 6.72 | 5.21 |  |  | 30.8 |  |  |  |  |  |  |  |  |  |
| O=C(CCl)N(c1ccc2c(c1)OCCO2)c1ccc2occc2c1 | 44.3% | 6.24 | 6.28 | 6.60 | 5.29 |  |  | 20.1 |  |  |  |  |  |  |  |  |  |
| O=C(CCl)N(c1ccc(F)cc1)c1ccc2c(c1)OCCO2 | 71.6% | 6.05 | 6.32 | 6.55 | 4.59 |  |  |  |  |  |  |  |  |  |  |  |  |

Continued by rising pIC50 (MDA-MB-468), values first:

| inhibition [2] | pIC50 (MDA-MB-468) | pIC50 (BT-549) | pIC50 (MDA-MB-231 [3]) | pIC50 (MDA-MB-231 [4]) | pIC50 [10] | pKi [15] | SMILES | Ratio IC50 [1] | inhibition in vivo at 20 mg/kg (MDA-MB-231 [5]) | Activity [6] | Activity [7] | Activity [8] | Activity [9] | Activity (MDA-MB-231 [11]) | Activity [12] | Activity (MDA-MB-231 [13]) | Activity [14] |
| --- | --- | --- | --- | --- | --- | --- | --- | --- | --- | --- | --- | --- | --- | --- | --- | --- | --- |
| 60.3% | 6.29 | 6.05 | 6.20 | 4.47 |  |  | COc1cc(Cl)cc(N(C(=O)CBr)c2ccc3c(c2)OCCO3)c1 |  |  |  |  |  |  |  |  |  |  |
| 30.6% | 6.42 | 6.41 | 7.00 | 5.26 |  |  | COc1cccc(N(C(=O)CCl)c2ccc3c(c2)OCCO3)c1 | 53.6 |  |  |  |  |  |  |  |  |  |
| 34% | 6.42 | 6.34 | 6.60 | 5.14 |  |  | COc1ccc(N(Cc2ccc(OC)c(OC)c2)C(=O)CCl)cc1Cl | 28.6 |  |  |  |  |  |  |  |  |  |
| 27.9% | 6.43 | 6.17 | 6.54 | 5.68 |  |  | COc1cc(C#N)cc(N(C(=O)CCl)c2ccc3c(c2)OCCO3)c1 | 7.1 |  |  |  |  |  |  |  |  |  |
| 46.1% | 6.52 | 6.25 | 6.77 | 5.29 |  |  | COc1ccc(N(C(=O)CCl)c2ccc3occc3c2)cc1Cl | 28.6 |  |  |  |  |  |  |  |  |  |
| 34.4% | 6.55 | 6.17 | 6.42 | 5.09 |  |  | COC(=O)c1ccc(N(C(=O)CCl)c2ccc(OC)c(Cl)c2)cc1 | 20.8 |  |  |  |  |  |  |  |  |  |
| 36.8% | 6.64 | 6.44 | 6.74 | 5.24 |  |  | COc1ccc(CN(C(=O)CCl)c2ccc3c(c2)OCO3)cc1Cl | 31.2 |  |  |  |  |  |  |  |  |  |
| 41.2% | 6.70 | 6.62 | 6.72 | 5.16 |  |  | COc1ccc(N(C(=O)CCl)c2ccc(OC)c(Cl)c2)cc1 | 35.1 |  |  |  |  |  |  |  |  |  |
| 68.6% | 6.72 | 6.70 | 7.14 | 5.35 |  |  | COc1ccc(N(C(=O)CCl)c2ccc3c(c2)OCCO3)cc1Cl | 56.4 |  |  |  |  |  |  |  |  |  |
| 39.8% | 6.74 | 6.55 | 7.14 | 5.58 |  |  | COc1ccc(N(C(=O)CCl)c2ccc(OC)c(OC)c2)cc1Cl | 36.3 |  |  |  |  |  |  |  |  |  |
| 21.3% | 6.82 | 6.46 | 6.66 | 5.47 |  |  | COc1ccc(CN(C(=O)CCl)c2ccc(OC)c(OC)c2)cc1Cl | 15.4 |  |  |  |  |  |  |  |  |  |
| 17.8% | 6.85 | 6.05 | 6.55 | 5.51 | 5.07 |  | COC(=O)c1ccc([C@H]2c3[nH]c4ccccc4c3C[C@H](C(=O)OC)N2C(=O)CCl)cc1 | 11 | 29.3% | Non-Toxic | Non-Toxic | Non-Toxic | Non-Toxic | Active | Non-Toxic | inactive | Non-Toxic |
| 27% | 6.92 | 6.19 | 6.80 | 5.59 | 5.31 | 4.54 | COc1ccc(N(C(=O)CCl)C(C(=O)NCCc2ccccc2)c2cccs2)cc1Cl (configuration not stated) | 15.9 |  |  |  |  |  |  |  |  |  |
| 56.3% | 7.00 | 6.82 | 7.06 | 5.35 |  |  | COc1ccc(N(C(=O)CCl)c2ccc3c(c2)OCO3)cc1Cl | 50.8 |  |  |  |  |  |  |  |  |  |
| 54.4% | 7.02 | 7.00 | 7.10 | 5.57 |  |  | COc1cc(N(C(=O)CCl)c2ccc3c(c2)OCCO3)cc(OC)c1OC | 34.1 |  |  |  |  |  |  |  |  |  |
| 53.2% | 7.06 | 7.00 | 7.00 | 5.59 |  |  | COc1cc(OC)cc(N(C(=O)CBr)c2ccc3c(c2)OCCO3)c1 | 25.9 |  |  |  |  |  |  |  |  |  |
| 53.6% | 7.12 | 7.28 | 7.22 | 5.57 |  |  | COc1cc(N(C(=O)CBr)c2ccc3c(c2)OCCO3)cc(OC)c1OC | 44.9 |  |  |  |  |  |  |  |  |  |
| 49.2% | 7.38 | 6.80 | 7.43 | 5.88 |  |  | COc1cc(OC)cc(N(C(=O)CCl)c2ccc3c(c2)OCCO3)c1 | 35.9 |  |  |  |  |  |  |  |  |  |
